# Tests used:
# [1] = tested on: mink lung endothelial (MvLu) cells; assay: DNA synthesis of MvLu cells, direct addition of agent; assay type: cell-based; details: 50 micromolar in fresh DMEM + 10% FCS
# Experimental: Assays for TGF-Beta. The TGF-beta activity present in medium conditioned on various cells was determined by DNA synthesis assay on mink lung […] (MvLu) cells; a modification of the assay described in Danielpour et al., J. Cell. Physiol., 138: 79-83, 1989. MvLu cells were subcultured at 1:5 dilution in DMEM + 10% FCS. After 24 hours, the medium was replaced with the conditioned medium to be tested in the absence or presence of the neutralizing antiserum to TGF-beta at 10 micrograms/ml. DNA synthesis during a 1 hour pulse of [^3H]-thymidine (5 microcuries/ml) was determined 23 hours after addition of the test medium. TGF-beta activity was calculated as the proportion of the inhibition of DNA synthesis which was reversed in the presence of neutralizing antibody, using a standard curve to convert the inhibition values into quantities of TGF-beta. The TGF-beta1 standards and conditioned media both contained 10% FCS in DMEM.
# TGF-beta = assay: ELISA for TGF-beta in medium conditioned on human EX cultures; assay type: cell-based; details: 5 µM
# Experimental: The total latent and active TGF-beta present was determined by a sandwich ELISA. Maxisorb 96-well ELISA plates (available from Gibco) were coated with neutralizing antiserum against TGF-beta (BDA19; available from R & D Systems) at 2 micrograms/cm^2 in phosphate buffered saline (PBS) overnight at room temperature. The plates were washed between each step with tris-buffered saline containing 0.1% Triton X-100 (available from Sigma Chemical Company). The plates were incubated with samples for 2 hours, with a second antibody to TGF-beta (BDA5; available from R & D Systems) at 0.1 micrograms/ml for 2 hours, anti-rabbit IgG peroxidase conjugated to antibody (available from Sigma Chemical Co.), made up according to manufacturer's instructions, for 15 minutes. Absorbances at 492 nm were converted into quantities of TGF-beta protein using a standard curve. Both conditioned media and standards were assayed in the presence of 10% FCS in DMEM. This assay was linear for TGF-beta concentrations in the range from 0.1 ng/ml to 20 ng/ml in the presence of 10% FCS in DMEM.
# Cell counting, DNA synthesis assays and assays for total and active TGF-beta were performed as described in Example 7.
# TGF-beta1 mRNA = assay: cells; details: Rattus norvegicus, 24 h, read-out: increase of TGF-beta1 mRNA
smiles,measurement,setting,value
"CC/C(=C(\c1ccccc1)c1ccc(OCCN(C)C)cc1)c1ccccc1 [tamoxifen, trans-2-[4-(1,2-diphenyl-1-butenyl)phenoxy]-N,N-dimethylethylamine]",effect on DNA synthesis of MvLu cells,[1],no effect on DNA synthesis
same,proportion of total TGF-beta protein that was activated,TGF-beta,55±5%
same,total TGF-beta protein in conditioned medium,TGF-beta,6.0 ± 2.0 ng/mL
same,fold induction at 10 µM,TGF-beta1 mRNA,~10
